Data: patent US20250197372A1 (priority 2020, published 2025)
Read-outs that look alike come from different tables or passages of the source.

What was measured:
Type in all cases: biochemical
[1] = target: T1, recombinant alpha-glucosidase I (human full-length glucosidase I, Glu 1) (Homo sapiens, UniProt Q13724); assay: Alpha-glucosidase I assay (Amplex Red glucose detection, synthetic trisaccharide substrate)
T1 construct: 6-His (C); made in house; host or cells: HEK-293T cells transduced with BacMam virus (virus raised in Sf9)
T1 sequence (Q13724 1-837): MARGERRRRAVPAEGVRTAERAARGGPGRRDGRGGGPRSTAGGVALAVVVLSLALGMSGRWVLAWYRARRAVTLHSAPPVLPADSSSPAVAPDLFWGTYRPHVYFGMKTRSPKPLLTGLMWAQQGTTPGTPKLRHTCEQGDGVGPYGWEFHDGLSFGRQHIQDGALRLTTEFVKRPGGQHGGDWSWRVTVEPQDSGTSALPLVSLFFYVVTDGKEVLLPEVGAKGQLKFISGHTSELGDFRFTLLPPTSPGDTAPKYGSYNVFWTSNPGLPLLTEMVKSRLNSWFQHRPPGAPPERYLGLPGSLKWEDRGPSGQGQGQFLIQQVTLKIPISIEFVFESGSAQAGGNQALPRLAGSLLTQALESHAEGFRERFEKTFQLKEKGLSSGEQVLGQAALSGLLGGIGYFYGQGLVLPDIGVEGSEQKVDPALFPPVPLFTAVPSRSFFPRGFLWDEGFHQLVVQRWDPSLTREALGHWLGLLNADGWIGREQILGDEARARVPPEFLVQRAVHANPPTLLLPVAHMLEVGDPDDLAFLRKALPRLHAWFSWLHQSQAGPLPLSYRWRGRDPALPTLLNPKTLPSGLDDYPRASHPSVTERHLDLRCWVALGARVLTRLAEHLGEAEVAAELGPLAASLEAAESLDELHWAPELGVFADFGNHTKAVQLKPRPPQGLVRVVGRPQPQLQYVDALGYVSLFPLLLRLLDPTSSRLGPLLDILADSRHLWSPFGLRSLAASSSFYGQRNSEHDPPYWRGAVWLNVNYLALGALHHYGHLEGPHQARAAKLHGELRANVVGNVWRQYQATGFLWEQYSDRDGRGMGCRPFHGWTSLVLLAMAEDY
Excerpt: Preparation of Human Full-length Glucosidase I: The amino acid sequence for human full-length glucosidase I was obtained from UniProt (Q13724). […] The entry vector was cloned into Kemp Proteins' BacMam Destination vector and transformed into chemically competent DH10Bac E. coli cells to produce recombinant glucosidase I bacmids. Bacmid isolates were obtained following two rounds of blue-white screening and they were transfected into Sf9 cells cultivated in serum-free medium (Thermo Fisher Scientific). Four days post-transfection the culture supernatants containing virus were harvested and filter sterilized. […] A multiplicity of infection (MOI, ratio of virus to cells) of 4 was selected. Soluble glucosidase I was detected by anti-His western blots in the soluble cell extract following extraction with 1% V/V NP40 for 30 minutes at 0° C. Productions and purifications of glucosidase I were carried out at scales ranging from 1-liter to 10-liters. […] In another example production at the 10-liter scale was performed in stirred-tank bioreactors at 27° C. and 80 rpm with dissolved oxygen level at 50% of oxygen in air and pH between 7.0 and 7.2. Cells were transduced at MOI of 4 and the cell pellet was harvested at 48 hours post-transduction using centrifugation.
The pellet from a 10-liter culture was lysed by resuspending the pellet into 1-liter of 50 mM NaH2PO4—H2O+300 mM NaCl+10 mM Imidazole+1 mM PMSF+1% V/V NP40 pH 8. The suspension was incubated on ice for 30 minutes and clarified at 500×g and 4° C. The supernatant was collected and clarified at 20,000×g for 30 minutes at 4° C. and the supernatant was collected and filtered through a 0.2 micron filter. […] The column was washed with 20 column volumes (CV) of 50 mM NaH2PO4-H2O+300 mM NaCl+10 mM Imidazole pH 8 and eluted using a linear gradient of 0-60% 50 mM NaH2PO4-H2O+300 mM NaCl+500 mM Imidazole pH 8 over 90 minutes. at 5 mL per minute. Fractions (25 mL) were collected and analyzed by SDS PAGE and Western Blot (reducing anti-His). Fractions containing purified glucosidase I were pooled and dialyzed into storage buffer (20 mM Tris+300 mM NaCl+50 mM L-arginine+10 mM EDTA+0.01% V/V Tween 80 pH 7.5). The final material was filter sterilized and stored at 4° C. and the working dilution confirmed by a use-test in the indicated assay conditions prior to use.
Alpha-glucosidase I Assay: The assay was performed by incubating recombinant alpha-glucosidase I enzyme with multiple dilutions of test compounds for 60 minutes at 37° C. A synthetic trisaccharide substrate analog was then introduced to the mixture for 90 minutes at 37° C. The reaction was then stopped with 1.5M Tris (pH 8). In the absence of inhibition, the terminal glucose of the substrate was hydrolyzed by the enzyme. The D-glucose product was detected using Amplex Red Glucose/Glucose Oxidase Assay Kit (Invitrogen) following the manufacturer's directions where glucose oxidase reacts with D-glucose to form D-gluconolactone and H2O2 which then reacts with the Amplex Red reagent to generate a red-fluorescent oxidation product (560 nm, excitation; 590 nm, emission). […] Percent inhibition is plotted as a function of concentration for each compound, compared to control reactions. The IC50 was determined using a 4-PL curve fit and serves as a measure of relative inhibitory activity of each test compound (see Table 3).

[2] = target: T2, recombinant alpha-glucosidase II (murine full-length glucosidase II, alpha and beta subunits, Glu 2) (Mus musculus, UniProt Q8BHN3); assay: Alpha-glucosidase II assay (4-methylumbelliferyl-alpha-D-pyranoside substrate, fluorescence)
T2 construct: made in house; host or cells: HEK-293T cells transduced with BacMam viruses (75% alpha, 25% beta); protein harvested from culture supernatant

[3] = target: recombinant human GAA (acid alpha-glucosidase) (Homo sapiens, UniProt P10253); assay: Acid alpha-glucosidase (GAA) assay (4-methylumbelliferyl-alpha-D-pyranoside substrate, fluorescence)
Method: Acid alpha-glucosidase (GAA): To analyze inhibitory effects of a test compound, commercially available recombinant human GAA was incubated with multiple dilutions of test compound for 60 minutes at 37° C. 4-methylumbelliferyl-alpha-D-pyranoside was then introduced to the mixture as the substrate. 1,4-methyllumbelliferone is generated, and after an incubation for 20 minutes at 37° C., the reaction was stopped with the stop solution (0.5M glycine 0.3M NaOH pH 10). 1,4-methyllumbelliferone is detected by fluorescence (excitation at 365 nm, emission at 440 nm). Relative fluorescence compared to untreated enzymatic activity and test compound concentration is plotted as a function of percent inhibition. The IC50 is determined using a 4-PL curve fit as the measure of relative inhibitory activity of each test compound (see Table 3).

[4] = Glucosidase 2, read-out: Glu2 IC50
[5] = Glucosidase 1, read-out: Glu 1 IC50

T2 sequence (O08795 15-521): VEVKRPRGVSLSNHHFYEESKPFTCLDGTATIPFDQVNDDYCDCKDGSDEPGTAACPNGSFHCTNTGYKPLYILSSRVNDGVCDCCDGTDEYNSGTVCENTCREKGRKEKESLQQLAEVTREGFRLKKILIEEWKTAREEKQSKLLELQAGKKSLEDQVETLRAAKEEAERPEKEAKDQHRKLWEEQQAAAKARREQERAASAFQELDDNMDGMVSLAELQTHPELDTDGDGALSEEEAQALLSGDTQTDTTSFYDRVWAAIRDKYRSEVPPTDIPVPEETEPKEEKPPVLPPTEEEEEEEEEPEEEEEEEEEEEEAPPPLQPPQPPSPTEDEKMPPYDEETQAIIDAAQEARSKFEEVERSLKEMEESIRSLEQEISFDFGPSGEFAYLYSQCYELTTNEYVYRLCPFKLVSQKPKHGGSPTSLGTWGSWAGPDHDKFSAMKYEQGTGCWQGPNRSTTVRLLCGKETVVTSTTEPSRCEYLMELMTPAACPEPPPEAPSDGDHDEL
T2 sequence (Q8BHN3 33-944): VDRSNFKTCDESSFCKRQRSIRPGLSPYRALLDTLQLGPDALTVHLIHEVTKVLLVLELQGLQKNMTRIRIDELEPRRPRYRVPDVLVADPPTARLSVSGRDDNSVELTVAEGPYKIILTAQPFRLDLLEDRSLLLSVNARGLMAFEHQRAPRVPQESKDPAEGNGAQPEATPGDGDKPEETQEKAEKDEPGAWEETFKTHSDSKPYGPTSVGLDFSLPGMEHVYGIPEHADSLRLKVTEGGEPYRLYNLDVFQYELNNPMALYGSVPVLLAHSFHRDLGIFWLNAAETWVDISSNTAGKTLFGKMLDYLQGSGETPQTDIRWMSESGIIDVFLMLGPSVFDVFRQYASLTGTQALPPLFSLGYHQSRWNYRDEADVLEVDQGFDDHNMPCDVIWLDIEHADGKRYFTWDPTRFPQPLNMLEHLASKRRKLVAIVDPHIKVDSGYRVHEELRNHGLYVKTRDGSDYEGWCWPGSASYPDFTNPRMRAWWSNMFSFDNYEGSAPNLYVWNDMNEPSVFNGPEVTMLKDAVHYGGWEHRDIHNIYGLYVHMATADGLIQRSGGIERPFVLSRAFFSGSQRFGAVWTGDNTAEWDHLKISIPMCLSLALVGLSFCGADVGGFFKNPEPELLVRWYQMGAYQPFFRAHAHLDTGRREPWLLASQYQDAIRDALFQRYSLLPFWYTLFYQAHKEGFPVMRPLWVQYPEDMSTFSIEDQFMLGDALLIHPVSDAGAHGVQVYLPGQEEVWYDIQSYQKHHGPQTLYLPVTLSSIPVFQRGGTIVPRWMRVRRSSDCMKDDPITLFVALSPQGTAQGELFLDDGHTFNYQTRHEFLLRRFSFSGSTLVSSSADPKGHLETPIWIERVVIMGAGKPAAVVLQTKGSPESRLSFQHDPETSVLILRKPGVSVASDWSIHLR

| SMILES | IC50 [1] [nM] | IC50 [2, 4] [nM] | IC50 [3] [nM] | IC50 [1, 5] [nM] | IC50 [2] [nM] |
| --- | --- | --- | --- | --- | --- |
| Cc1cc(NCc2ccc(CN3C[C@H](O)[C@@H](O)[C@H](O)[C@H]3CO)cc2)cc(-c2cccnn2)c1 [Compound 1052, (2R,3R,4R,5S)-2-(hydroxymethyl)-1-{[4-({[3-methyl-5-(pyridazin-3-yl)phenyl]amino}methyl)phenyl]methyl}piperidine-3,4,5-trio] | 73 | 179 | 150 | – | – |
| COc1cc(Cc2ccccc2)cc(NCCCCCCN2C[C@H](O)[C@@H](O)[C@H](O)[C@H]2CO)c1 [Compound 1145, (2R,3R,4R,5S)-1-{6-[(3-benzyl-5-methoxyphenyl)amino]hexyl}-2-(hydroxymethyl)piperidine-3,4,5-triol] | – | < 1 | 60 | 283 | – |
| [N-]=[N+]=Nc1ccc(NCCc2cnn(CCN3C[C@H](O)[C@@H](O)[C@H](O)[C@H]3CO)c2)c([N+](=O)[O-])c1 [Compound 1191, (2R,3R,4R,5S)-1-[2-(4-{2-[(4-azido-2-nitrophenyl)amino]ethyl}-1H-pyrazol-1-yl)ethyl]-2-(hydroxymethyl)piperidine-3,4,5-triol] | – | 20300 | 2740 | 7550 | – |
| [N-]=[N+]=Nc1ccc(NCCc2cncc(CCN3C[C@H](O)[C@@H](O)[C@H](O)[C@H]3CO)n2)c([N+](=O)[O-])c1 [Compound 1187, (2R,3R,4R,5S)-1-[2-(6-{2-[(4-azido-2-nitrophenyl)amino]ethyl}pyrazin-2-yl)ethyl]-2-(hydroxymethyl)piperidine-3,4,5-triol] | 94 | 3 | 615 | – | – |
| COc1cc(NCCCCCCN2C[C@H](O)[C@@H](O)[C@H](O)[C@H]2CO)cc(C2=CCCCC2)c1 [Compound 1149, (2R,3R,4R,5S)-1-(6-{[3-(cyclohex-1-en-1-yl)-5-methoxy-phenyl]amino}hexyl)-2-(hydroxymethyl)piperidine-3,4,5-triol] | – | < 1 | 66 | 264 | – |
| Cc1cc(NCc2cccc(CN3C[C@H](O)[C@@H](O)[C@H](O)[C@H]3CO)n2)cc(-c2ccc[nH]2)c1 [Compound 1335, (2R,3R,4R,5S)-2-(hydroxymethyl)-1-{[6-({[3-methyl-5-(1H-pyrrol-2-yl)phenyl]amino}methyl)pyridin-2-yl]methyl}piperidine-3,4,5-triol] | 966 | – | 470 | – | > 100000 |
| COc1cc(NCCc2ccc(CCN3C[C@H](O)[C@@H](O)[C@H](O)[C@H]3CO)cc2)cc(C2=COCCO2)c1 [Compound 1155, (2R,3R,4R,5S)-1-{2-[4-(2-{[3-(5,6-dihydro-1,4-dioxin-2-yl)-5-methoxyphenyl]amino}ethyl)phenyl]ethyl}-2-(hydroxymethyl)piperidine-3,4,5-triol] | – | < 1 | 455 | 1250 | – |
| COc1cc(CN2CCCO2)cc(NCCCCCCN2C[C@H](O)[C@@H](O)[C@H](O)[C@H]2CO)c1 [Compound 1182, (2R,3R,4R,5S)-2-(hydroxymethyl)-1-[6-({3-methoxy-5-[(1,2-oxazolidin-2-yl)methyl]phenyl}amino)hexyl]piperidine-3,4,5-triol] | – | 2 | 33 | 47 | – |
| OC[C@@H]1[C@@H](O)[C@H](O)[C@@H](O)CN1CCCCCCNc1ccc(-c2ncco2)cc1Cl [Compound 1203, (2R,3R,4R,5S)-1-(6-{[2-chloro-4-(1,3-oxazol-2-yl)phenyl]amino}hexyl)-2-(hydroxymethyl)piperidine-3,4,5-triol] | – | < 1 | 40 | 3 | – |
| CS(=O)(=O)c1cc(NCc2cccc(CN3C[C@H](O)[C@@H](O)[C@H](O)[C@H]3CO)c2)cc(-c2cccnn2)c1 [Compound 1040, (2R,3R,4R,5S)-2-(hydroxymethyl)-1-{[3-({[3-methanesulfonyl-5-(pyridazin-3-yl)phenyl]amino}methyl)phenyl]methyl}piperidine-3,4,5-triol] | 17 | – | 1300 | – | 4610 |
| COc1cc(NCCCCCCN2C[C@H](O)[C@@H](O)[C@H](O)[C@H]2CO)cc(C2=CCCO2)c1 [Compound 1147, (2R,3R,4R,5S)-1-(6-{[3-(4,5-dihydrofuran-2-yl)-5-methoxyphenyl]amino}hexyl)-2-(hydroxymethyl)piperidine-3,4,5-triol] | – | 34 | 38 | 263 | – |
| OC[C@@H]1[C@@H](O)[C@H](O)[C@@H](O)CN1CCc1ccc(CCNc2cc(Cl)cc(C3=COCCO3)c2)cc1 [Compound 1161, (2R,3R,4R,5S)-1-{2-[4-(2-{[3-chloro-5-(5,6-dihydro-1,4-dioxin-2-yl)phenyl]amino}ethyl)phenyl]ethyl}-2-(hydroxymethyl)piperidine-3,4,5-triol] | – | 2 | 84 | 729 | – |
| OC[C@@H]1[C@@H](O)[C@H](O)[C@@H](O)CN1CCCCCCNc1cc(-c2ncccn2)cc(C(F)(F)F)c1 [Compound 1131, (2R,3R,4R,5S)-2-(hydroxymethyl)-1-(6-{[3-(pyrimidin-2-yl)-5-(trifluoromethyl)phenyl]amino}hexyl)piperidine-3,4,5-triol] | – | 3 | 25 | 232 | – |
| OC[C@@H]1[C@@H](O)[C@H](O)[C@@H](O)CN1CCc1ccc(CCNc2cc(Cl)cc(C3=CCOCC3)c2)cc1 [Compound 1160, (2R,3R,4R,5S)-1-{2-[4-(2-{[3-chloro-5-(3,6-dihydro-2H-pyran-4-yl)phenyl]amino}ethyl)phenyl]ethyl}-2-(hydroxymethyl)piperidine-3,4,5-triol] | – | – | 24 | 1570 | – |
